target: PLpro of SARS-CoV-2 (Severe acute respiratory syndrome coronavirus 2, UniProt P0DTD1); experiment: Enzyme activity test in vitro: inhibition of PLpro at fixed concentration 50 μM (RLRGG-AMC substrate); assay type: biochemical; details: read-out: Inhibition rate at 50 μM (%)

SMILES | inhibition at 50 µM
CSc1ccc(-c2nc3cnccn3c2Nc2cccc(C(=O)NCCN(C)C)c2)cc1 [P22467, N-[2-(dimethylamino)ethyl]-3-[[2-(4-methylsulfanylphenyl)imidazo[1,2-a]pyrazin-3-yl]amino] benzamide] | 29.8%
O=C(c1cccc(Nc2c(-c3ccc(Cl)cc3)nc3cnccn23)c1)N1CCCCC1 [P22468, [3-[[2-(4-chlorophenyl)imidazo[1,2-a]pyrazin-3-yl]amino]phenyl]-piperidin-1-ylmethanone] | 29%
O=C(NCc1ccco1)c1cccc(Nc2c(-c3ccc(Cl)cc3)nc3cnccn23)c1 [P22469, 3-[[2-(4-chlorophenyl)imidazo[1,2-a]pyrazin-3-yl]amino]-N-(furan-2-ylmethyl) benzamide] | 40.5%
COc1ccc(-c2nc3cnccn3c2Nc2ccc(C(=O)N3CCOCC3)cc2)cc1OC [P22470, [4-[[2-(3,4-dimethoxy-phenyl)imidazo[1,2-a]pyrazin-3-yl]amino]phenyl]-morpholin-4-ylmethanone] | 32.1%
O=C(NCCN1CCOCC1)c1ccc(Nc2c(-c3ccccc3)nc3cnccn23)cc1 [P22472, N-(2-morpholin-4-ylethyl)-4-[(2-phenyl-imidazo[1,2-a]pyrazin-3-yl)amino] benzamide] | 33%
COc1ccc(-c2nc3cnccn3c2Nc2ccc(C(=O)NCC3CCCO3)cc2)cc1 (stereo not shown) [P22473, 4-[[2-(4-methoxy-phenyl)imidazo[1,2-a]pyrazin-3-yl]amino]-N-(oxolan-2-ylmethyl) benzamide] | 36.8%
O=C(c1ccc(Nc2c(-c3ccccc3)nc3cnccn23)cc1)N1CCOCC1 [P22474, morpholin-4-yl-[4-[(2-phenylimidazo [1,2-a]pyrazin-3-yl)amino]phenyl] methanone] | 35.3%
CC(C)NC(=O)c1cccc(Nc2c(-c3ccccc3)nc3cnccn23)c1 [P22476, 3-[(2-phenylimidazo [1,2-a]pyrazin-3-yl)amino]-N-propan-2-ylbenzamide] | 29%
O=C(NCC1CCCO1)c1cccc(Nc2c(-c3ccccc3)nc3cnccn23)c1 (stereo not shown) [P22477, N-(oxolan-2-ylmethyl)-3-[(2-phenylimidazo [1,2-a]pyrazin-3-yl)amino]benzamide] | 41%
CSc1ccc(-c2nc3cnccn3c2Nc2cccc(C(=O)N3CCCCC3)c2)cc1 [P22478, [3-[[2-(4-methyl-sulfanylphenyl)imidazo [1,2-a]pyrazin-3-yl]amino]phenyl]-piperidin-1-ylmethanone] | 43.9%
COc1ccc(-c2nc3cnccn3c2Nc2ccc(C(=O)NCc3ccco3)cc2)cc1OC [P22480, 4-[[2-(3,4-dimethoxy-phenyl)imidazo[1,2-a]pyrazin-3-yl]amino]-N-(furan-2-ylmethyl)benzamide] | 40.6%
O=C(NC1CCCCC1)c1cccc(Nc2c(-c3ccc(F)cc3)nc3cnccn23)c1 [P22481, N-cyclohexyl-3-[[2-(4-fluorophenyl)imidazo[1,2-a]pyrazin-3-yl]amino] benzamide] | 11.8%
CCOC(=O)c1ccc(Nc2c(-c3ccc(C)cc3)nc3cnccn23)cc1 [P22482, ethyl 4-[[2-(4-methylphenyl)imidazo[1,2-a]pyrazin-3-yl]amino] benzoate] | 22.2%
CCOC(=O)c1ccc(Nc2c(-c3ccccc3)nc3cnccn23)cc1 [P22483, ethyl 4-[(2-phenylimidazo [1,2-a]pyrazin-3-yl)amino]benzoate] | 29.4%
COC(=O)c1ccc(-c2nc3cnccn3c2Nc2ccc(OC)c(OC)c2)cc1 [P22491, methyl 4-[3-(3,4-dimethoxy-anilino)imidazo[1,2-a]pyrazin-2-yl] benzoate] | 22.4%
CCOC(=O)c1ccc(Nc2c(-c3ccc(Cl)cc3)nc3cnccn23)cc1 [P22492, ethyl 4-[[2-(4-chlorophenyl)imidazo[1,2-a]pyrazin-3-yl]amino] benzoate] | 29.5%
O=C(O)c1ccc(Nc2c(-c3cccc(Cl)c3)nc3cnccn23)cc1 [P22493, 4-[[2-(3-chlorophenyl)imidazo[1,2-a]pyrazin-3-yl]amino] benzoic acid] | 13.2%
CCc1cccc(C)c1Nc1c(-c2ccc(C(=O)NC)cc2)nc2cnccn12 [P22501, 4-[3-(2-ethyl-6-methyl-anilino)imidazo [1,2-a]pyrazin-2-yl]-N-methyl-benzamide] | 28.7%
CCOC(=O)c1ccc(Nc2c(-c3ccc(N(C)C)cc3)nc3cnccn23)cc1 [P22502, ethyl 4-[[2-[4-(dimethyl-amino)phenyl]imidazo [1,2-a]pyrazin-3-yl]amino]benzoate] | 14.4%
O=C(O)c1ccc(Nc2c(-c3cc(Br)ccc3O)nc3cnccn23)cc1 [P22503, 4-[[2-(5-bromo-2-hydroxyphenyl)imidazo [1,2-a]pyrazin-3-yl]amino]benzoic acid] | 27.6%
CCNC(=O)c1ccc(-c2nc3cnccn3c2Nc2c(C)cccc2CC)cc1 [P22511, N-ethyl-4-[3-(2-ethyl-6-methylanilino)imidazo[1,2-a]pyrazin-2-yl]benzamide] | 27.7%
CCOC(=O)c1ccc(Nc2c(-c3ccccc3O)nc3cnccn23)cc1 [P22512, ethyl 4-[[2-(2-hydroxy-phenyl)imidazo[1,2-a]pyrazin-3-yl]amino] benzoate] | 26.9%

SMILES | inhibition at 50 µM
CCc1cccc(C)c1Nc1c(-c2ccc(NC(C)=O)cc2)nc2cnccn12 [P22513, N-[4-[3-(2-ethyl-6-methylanilino)imidazo [1,2-a]pyrazin-2-yl]phenyl]acetamide] | 21.9%
CCOC(=O)c1ccc(Nc2c(-c3ccc(C(=O)OC)cc3)nc3cnccn23)cc1 [P22521, methyl 4-[3-(4-ethoxy-carbonylanilino)imidazo[1,2-a]pyrazin-2-yl]benzoate] | 22%
CCOC(=O)c1ccc(Nc2c(-c3cccc(Cl)c3)nc3cnccn23)cc1 [P22522, ethyl 4-[[2-(3-chlorophenyl)imidazo[1,2-a]pyrazin-3-yl]amino] benzoate] | 32.3%
CCOC(=O)c1ccc(Nc2c(-c3ccc(OC)cc3)nc3cnccn23)cc1 [P22531, ethyl 4-[[2-(4-methoxy-phenyl)imidazo[1,2-a]pyrazin-3-yl]amino] benzoate] | 31.9%
CCOC(=O)c1ccc(Nc2c(-c3cccc(Br)c3)nc3cnccn23)cc1 [P22532, ethyl 4-[[2-(3-bromophenyl)imidazo[1,2-a]pyrazin-3-yl]amino] benzoate] | 24.2%
CCOC(=O)c1ccc(Nc2c(-c3ccc(SC)cc3)nc3cnccn23)cc1 [P22541, ethyl 4-[[2-(4-methyl-sulfanylphenyl)imidazo [1,2-a]pyrazin-3-yl]amino]benzoate] | 33.8%
CCOC(=O)c1ccc(Nc2c(-c3cc(Br)ccc3O)nc3cnccn23)cc1 [P22542, ethyl 4-[[2-(5-bromo-2-hydroxyphenyl)imidazo [1,2-a]pyrazin-3-yl]amino]benzoate] | 31.5%
CCOC(=O)c1ccc(Nc2c(-c3ccc(O)c(OC)c3)nc3cnccn23)cc1 [P22551, ethyl 4-[[2-(4-hydroxy-3-methoxyphenyl)imidazo[1,2-a]pyrazin-3-yl]amino]benzoate] | 21%
CCOC(=O)c1ccc(Nc2c(-c3cccc(O)c3)nc3cnccn23)cc1 [P22552, ethyl 4-[[2-(3-hydroxy-phenyl)imidazo[1,2-a]pyrazin-3-yl]amino] benzoate] | 19.9%
COC(=O)c1ccc(-c2nc3cnccn3c2NC2CCCCC2)cc1 [P24359, methyl 4-[3-(cyclohexylamino)imidazo[1,2-a]pyrazin-2-yl]benzoate] | 37.1%
CCOC(=O)c1ccc(Nc2c(-c3ccc(N4CCOCC4)cc3)nc3cnccn23)cc1 [P24803, ethyl 4-[[2-(4-morpholin-4-ylphenyl)imidazo [1,2-a]pyrazin-3-yl]amino]benzoate] | 24.7%
O=C(O)c1ccc(Nc2c(-c3ccc(N4CCOCC4)cc3)nc3cnccn23)cc1 [P24813, 4-[[2-(4-morpholin-4-ylphenyl)imidazo [1,2-a]pyrazin-3-yl]amino]benzoic acid] | 31.9%
COC(=O)c1cccc(Nc2c(-c3ccc([N+](=O)[O-])cc3)nc3cnccn23)c1 [P24823, methyl 3-[[2-(4-nitrophenyl)imidazo[1,2-a]pyrazin-3-yl]amino] benzoate] | 31.2%
O=C(O)c1cccc(Nc2c(-c3ccc(N4CCOCC4)cc3)nc3cnccn23)c1 [P24833, 3-[[2-(4-morpholin-4-ylphenyl)imidazo [1,2-a]pyrazin-3-yl]amino]benzoic acid] | 35.1%
COc1ccc(-c2nc3cnccn3c2Nc2ccc3c(c2)OCCO3)cc1OC [P24852, N-(2,3-dihydro-1,4-benzodioxin-6-yl)-2-(3,4-dimethoxy-phenyl)imidazo[1,2-a]pyrazin-3-amine] | 24.9%
COC(=O)c1ccc(-c2nc3cnccn3c2Nc2ccc3c(c2)OCCO3)cc1 [P24862, methyl 4-[3-(2,3-dihydro-1,4-benzodioxin-6-ylamino)imidazo[1,2-a]pyrazin-2-yl] benzoate] | 30.1%
COC(=O)c1ccc(-c2nc3cnccn3c2Nc2ccc3c(c2)OCO3)cc1 [P24872, methyl 4-[3-(1,3-benzodioxol-5-ylamino)imidazo [1,2-a]pyrazin-2-yl]benzoate] | 27.2%
Fc1ccc(-c2nc3cnccn3c2Nc2ccc3c(c2)OCO3)cc1 [P28366, N-(1,3-benzodioxol-5-yl)-2-(4-fluoro-phenyl)imidazo[1,2-a]pyrazin-3-amine] | 36.3%
COC(=O)c1ccc(-c2nc3cnccn3c2Nc2ccc(OC)cc2)cc1 [P28376, methyl 4-[3-(4-methoxy-anilino)imidazo[1,2-a]pyrazin-2-yl]benzoate] | 28.5%
CCNC(=O)c1cccc(Nc2c(-c3ccc(OC)cc3)nc3cnccn23)c1 [P28734, N-ethyl-3-[[2-(4-methoxyphenyl)imidazo[1,2-a]pyrazin-3-yl]amino]benzamide] | 41%
Cc1cccc(C)c1Nc1c(-c2ccccc2)nc2cnccn12 [P32333, N-(2,6-dimethylphenyl)-2-phenylimidazo [1,2-a]pyrazin-3-amine] | 35.8%

Reference: patent publication US20250032485A1, “APPLICATION OF IMIDAZO [1,2-A] PYRAZINE COMPOUNDS OR THEIR PHARMACEUTICALLY ACCEPTABLE SALTS IN THE PREPARATION OF ANTI-CORONAVIRUS DRUGS” (GUANGZHOU MEDICAL UNIVERSITY, priority 2023, published 2025)
